*1 amine or outer side, *2 acyl side, *3 side chain or, on linkers, in order; H or OH if unused. Where a SMILES comes first, the peptide text is derived from it. Bridges are numbered along the chain shown (N, C = ends). [ ]: non-standard residue; d: D form. The star is where a group is joined. C20 diacid = O=C(O)CCCCCCCCCCCCCCCCCCC(=O)*; γGlu = O=C(O)[C@H](CCC(=O)[*:2])N[*:1]; Hyp = O=C(O)[C@@H]1C[C@@H](O)CN1; NMeI = CC[C@H](C)[C@H](NC)C(=O)O; Sar = CNCC(=O)O
What was measured:
[1] = Assessment of physical stability (Thioflavin T fibrillation); type: physicochemical; parameters: key: FND = fibrillation not detected; FD = fibrillation detected; conditions: 1 mg/ml, 40° C., ThT; for Fibrillation pH 4.0 (Ac): 50 mM acetate buffer pH 4.0, 96 hours; for Fibrillation pH 7.0 (His): 50 mM histidine buffer pH 7.0, 96 hours; for Fibrillation pH 7.0 (Phos.): 50 mM phosphate buffer pH 7.0, 96 hours
Method in brief: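 Fibrillation lag-time, in hours, taken where regressions of the initial stable phase and the growth phase intersect. ThT (40 μM) fluorescence monitored at 40 °C for 96 h, 10-min reads each preceded by 300 s mixing. Peptide at 1 mg/ml in 50 mM buffers: phosphate or histidine pH 7.0, acetate pH 4.0.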

[2] = biological target: T1, human amylin receptor 3 (hAMYR3), hCTR2 co-expressed with hRAMP3 (Homo sapiens, UniProt O60896+P30988); experiment: hAMYR3 cAMP assay (AlphaScreen) in COS7 cells; type: cell-based; conditions: cAMP induction, COS7 cells expressing hAMYR3; Table 1; read-out: hAMYR3 EC50
T1 construct: expressed in transfected cells
T1 sequence (P30988 25-474): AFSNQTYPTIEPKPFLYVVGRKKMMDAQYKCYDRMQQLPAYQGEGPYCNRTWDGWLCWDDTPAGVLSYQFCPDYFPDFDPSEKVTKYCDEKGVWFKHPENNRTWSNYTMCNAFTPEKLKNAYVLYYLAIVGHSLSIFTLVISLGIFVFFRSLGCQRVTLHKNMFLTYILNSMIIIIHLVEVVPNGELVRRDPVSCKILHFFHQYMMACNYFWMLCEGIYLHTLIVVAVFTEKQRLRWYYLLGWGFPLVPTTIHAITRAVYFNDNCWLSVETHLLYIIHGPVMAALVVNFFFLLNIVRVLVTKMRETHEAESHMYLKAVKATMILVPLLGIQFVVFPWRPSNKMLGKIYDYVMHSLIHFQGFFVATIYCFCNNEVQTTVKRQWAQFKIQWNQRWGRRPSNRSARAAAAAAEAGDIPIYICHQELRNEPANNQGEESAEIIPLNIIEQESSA
T1 sequence (O60896 24-148 partner): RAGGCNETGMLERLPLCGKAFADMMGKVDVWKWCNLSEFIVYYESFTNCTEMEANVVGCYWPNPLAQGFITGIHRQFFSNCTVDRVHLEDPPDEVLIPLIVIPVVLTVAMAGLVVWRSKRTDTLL
Method in brief: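 EC50 values derive from 4PL curve fits of cAMP (AlphaScreen) in lysates of RAMP-naive COS7 cells stably carrying hCTR2 plus hRAMP3. Peptide dilution series were applied for 15 min at 37 °C in pH 7.4 Tyrode buffer containing 100 µM IBMX and 0.1% casein.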

[3] = Assessment of chemical stability (RP-HPLC normalized purity); type: physicochemical; conditions: for Normalized purity after 7 days, 40° C., pH 4: pH 4, 0.2 mg/ml; for Normalized purity after 7 days, 40° C., pH 4 / Normalized purity after 7 days, 40° C., pH 6 / Normalized purity after 7 days, 40° C., pH 7.5 / Normalized purity after 7 days, 40° C., pH 9: Table 1; for Normalized purity after 7 days, 40° C., pH 6: pH 6, 0.2 mg/ml; for Normalized purity after 7 days, 40° C., pH 7.5: pH 7.5, 0.2 mg/ml; for Normalized purity after 7 days, 40° C., pH 9: pH 9, 0.2 mg/ml
Method in brief: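 Purity after 7 days at 40° C is expressed relative to T=0 (set to 100) for each pH. Samples at 0.2 mg/ml, pH 4, 6, 7.5 or 9, analyzed by RP-HPLC with UV 220 nm on C8 (ammonium formate) or C18 (TFA) gradients.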

Fibrillation pH 4.0 (Ac) [1]	Fibrillation pH 7.0 (His) [1]	Fibrillation pH 7.0 (Phos.) [1]	EC50 [2] [nM]	Normalized purity after 7 days, 40° C., pH 4 [3]	Normalized purity after 7 days, 40° C., pH 6 [3]	Normalized purity after 7 days, 40° C., pH 7.5 [3]	Normalized purity after 7 days, 40° C., pH 9 [3]	Normalized purity pH 4 (Table 5) ([3]; pH 4, repeat of Example 6 for pairs with/without Asn-Asn at 21-22)	Normalized purity pH 6 (Table 5) ([3]; pH 6, repeat of Example 6 for pairs with/without Asn-Asn at 21-22)	Normalized purity pH 7.5 (Table 5) ([3]; pH 7.5, repeat of Example 6 for pairs with/without Asn-Asn at 21-22)	Normalized purity pH 9 (Table 5) ([3]; pH 9, repeat of Example 6 for pairs with/without Asn-Asn at 21-22)	SMILES
FND	FND	FND	0.12	A (A = >90%)	B (B = 70-90%)	B (B = 70-90%)	B (B = 70-90%)					CC[C@H](C)[C@@H](C(=O)N[C@@H](CC(C)C)C(=O)N[C@@H](CO)C(=O)N[C@@H](CO)C(=O)N[C@H](C(=O)N[C@@H](CCC(=O)O)C(=O)N[C@H](C(=O)NCC(=O)N[C@@H](CO)C(=O)N[C@@H](CO)C(=O)N[C@H](C(=O)N1CCC[C@H]1C(N)=O)[C@@H](C)O)C(C)C)[C@@H](C)O)N(C)C(=O)[C@H](C)NC(=O)CN(C)C(=O)[C@H](Cc1ccccc1)NC(=O)[C@H](CO)NC(=O)[C@H](CO)NC(=O)[C@H](CCCNC(=N)N)NC(=O)[C@H](CCC(N)=O)NC(=O)[C@H](CC(C)C)NC(=O)[C@H](Cc1ccccc1)NC(=O)[C@H](Cc1c[nH]cn1)NC(=O)[C@H](C)NC(=O)[C@H](CC(C)C)NC(=O)[C@H](CCCNC(=N)N)NC(=O)[C@H](CCC(=O)O)NC(=O)[C@@H](NC(=O)[C@H](C)NC(=O)[C@@H]1CSSC[C@H](NC(=O)[C@H](CCCNC(=N)N)NC(=O)CC[C@H](NC(=O)CCCCCCCCCCCCCCCCCCC(=O)O)C(=O)O)C(=O)NCC(=O)N[C@@H]([C@@H](C)O)C(=O)N[C@@H](C)C(=O)N[C@@H]([C@@H](C)O)C(=O)N1)[C@@H](C)O [Compound 34, [19CD]-isoGlu-R-C( )-GTAT-C( )-ATERLAHFLQRSSF-Gly(Me)-A-Ile(Me)-LSSTEVGSSTP-NH2] ({C20 diacid-γGlu}-RCGTATCATERLAHFLQRSSF[Sar]A[NMeI]LSSTEVGSSTP-NH2; disulfide 2-7)
FND	FND	FND	0.11	A (A = >90%)	A (A = >90%)	A (A = >90%)	A (A = >90%)	A (A = >90%)	A (A = >90%)	A (A = >90%)	B (B = 70-90%)	CC[C@H](C)[C@@H](C(=O)N[C@@H](CC(C)C)C(=O)N[C@@H](CO)C(=O)N[C@@H](CO)C(=O)N[C@H](C(=O)N[C@@H](CCC(=O)O)C(=O)N[C@H](C(=O)NCC(=O)N[C@@H](CO)C(=O)N[C@@H](CC(N)=O)C(=O)N[C@H](C(=O)N1C[C@H](O)C[C@H]1C(N)=O)[C@@H](C)O)C(C)C)[C@@H](C)O)N(C)C(=O)[C@H](C)NC(=O)CN(C)C(=O)[C@H](Cc1ccccc1)NC(=O)[C@H](CO)NC(=O)[C@H](CO)NC(=O)[C@H](CCCNC(=N)N)NC(=O)[C@H](CCC(N)=O)NC(=O)[C@H](CC(C)C)NC(=O)[C@H](Cc1ccccc1)NC(=O)[C@H](Cc1c[nH]cn1)NC(=O)[C@H](C)NC(=O)[C@H](CC(C)C)NC(=O)[C@H](CCCNC(=N)N)NC(=O)[C@H](CCC(=O)O)NC(=O)[C@@H](NC(=O)[C@H](C)NC(=O)[C@@H]1CSSC[C@H](NC(=O)[C@H](CCCNC(=N)N)NC(=O)CC[C@H](NC(=O)CCCCCCCCCCCCCCCCCCC(=O)O)C(=O)O)C(=O)N[C@@H](CCC(N)=O)C(=O)N[C@@H]([C@@H](C)O)C(=O)N[C@@H](C)C(=O)N[C@@H]([C@@H](C)O)C(=O)N1)[C@@H](C)O [Compound 57, [19CD]-isoGlu-R-C( )-QTAT-C( )-ATERLAHFLQRSSF-Gly(Me)-A-Ile(Me)-LSSTEVGSNT-Hyp-NH2] ({C20 diacid-γGlu}-RCQTATCATERLAHFLQRSSF[Sar]A[NMeI]LSSTEVGSNT[Hyp]-NH2; disulfide 2-7)
